Reference: patent publication US8946147B2 (priority 2010, dated 2015)
“And” between values parts separate entries of the source, which are not always exact repeats. Identical values can stand only once. Each block holds one compound with its values, some of them ahead of it. Positions of bridges follow the written chain, without caps; N, C: chain ends. Non-standard residues stand in square brackets, D forms with d. Residues, ends and D or L forms follow the SMILES beside them. Chains are numbered I, II in the order given. *: point of attachment. Phe(4-NH2) = Nc1ccc(C[C@H](N)C(=O)O)cc1; X1 = NOCC(=O)*

Columns and labels:
human insulin receptor = target: T1, human insulin receptor (Homo sapiens, UniProt P06213); assay: Insulin receptor binding assay (scintillation proximity competition); settings: for % Activity of Insulin: Table 3A, in vitro binding
T1 construct: expressed in transfected cells; plasma membrane fragments
T1 sequence (P06213 28-758 limits assumed): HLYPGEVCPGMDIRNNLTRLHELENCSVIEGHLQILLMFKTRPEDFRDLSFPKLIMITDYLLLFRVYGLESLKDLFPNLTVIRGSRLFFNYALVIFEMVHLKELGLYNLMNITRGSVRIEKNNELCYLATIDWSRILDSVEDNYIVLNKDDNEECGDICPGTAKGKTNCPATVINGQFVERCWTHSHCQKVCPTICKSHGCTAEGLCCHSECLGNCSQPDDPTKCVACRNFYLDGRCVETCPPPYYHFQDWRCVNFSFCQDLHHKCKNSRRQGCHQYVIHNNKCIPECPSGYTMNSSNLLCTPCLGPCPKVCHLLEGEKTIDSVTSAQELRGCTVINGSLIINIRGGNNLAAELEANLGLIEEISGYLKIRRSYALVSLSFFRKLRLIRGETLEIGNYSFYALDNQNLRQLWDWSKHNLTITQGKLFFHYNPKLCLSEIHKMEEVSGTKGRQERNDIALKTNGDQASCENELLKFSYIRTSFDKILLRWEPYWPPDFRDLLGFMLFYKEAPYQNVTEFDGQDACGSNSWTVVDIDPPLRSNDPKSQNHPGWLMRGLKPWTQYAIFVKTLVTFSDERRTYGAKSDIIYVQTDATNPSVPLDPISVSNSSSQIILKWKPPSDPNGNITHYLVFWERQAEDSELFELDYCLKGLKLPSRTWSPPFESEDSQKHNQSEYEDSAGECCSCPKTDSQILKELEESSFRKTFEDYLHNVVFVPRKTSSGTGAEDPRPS
T1 sequence (P06213 763-1382 partner limits assumed): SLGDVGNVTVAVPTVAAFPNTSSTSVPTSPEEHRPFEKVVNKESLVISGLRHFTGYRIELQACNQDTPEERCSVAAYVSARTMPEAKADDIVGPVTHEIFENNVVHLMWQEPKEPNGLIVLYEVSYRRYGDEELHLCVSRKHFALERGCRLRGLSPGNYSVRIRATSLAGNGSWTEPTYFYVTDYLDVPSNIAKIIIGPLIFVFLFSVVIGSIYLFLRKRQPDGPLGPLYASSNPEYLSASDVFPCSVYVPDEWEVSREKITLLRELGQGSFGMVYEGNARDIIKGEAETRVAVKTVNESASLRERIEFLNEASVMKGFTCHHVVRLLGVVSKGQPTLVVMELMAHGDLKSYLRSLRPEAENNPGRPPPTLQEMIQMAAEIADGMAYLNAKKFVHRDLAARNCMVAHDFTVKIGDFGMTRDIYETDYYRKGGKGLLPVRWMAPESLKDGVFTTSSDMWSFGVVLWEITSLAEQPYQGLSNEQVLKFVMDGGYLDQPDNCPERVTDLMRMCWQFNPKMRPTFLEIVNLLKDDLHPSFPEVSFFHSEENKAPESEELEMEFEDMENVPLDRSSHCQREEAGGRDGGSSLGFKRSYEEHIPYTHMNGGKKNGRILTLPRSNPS

[1] = target: T2, insulin receptor (receptor transfected HEK293 cells) (Homo sapiens, UniProt P06213); assay: Insulin receptor phosphorylation assay; format: cell-based; settings: for % Activity of Insulin: Table 3B, in vitro phosphorylation
T2 construct: expressed in transfected cells; host or cells: HEK293
T2 sequence (P06213 28-758 limits assumed): as the sequence (P06213 28-758 limits assumed) above
T2 sequence (P06213 763-1382 partner limits assumed): as the sequence (P06213 763-1382 partner limits assumed) above

IGF-1 Receptor [2] = target: T3, IGF-1 Receptor (Homo sapiens, UniProt P08069); assay: IGF-1 receptor phosphorylation assay; format: cell-based; design: expressed in transfected cells; host or cells: HEK293; settings: Table 10
T3 sequence (P08069 31-736 limits assumed): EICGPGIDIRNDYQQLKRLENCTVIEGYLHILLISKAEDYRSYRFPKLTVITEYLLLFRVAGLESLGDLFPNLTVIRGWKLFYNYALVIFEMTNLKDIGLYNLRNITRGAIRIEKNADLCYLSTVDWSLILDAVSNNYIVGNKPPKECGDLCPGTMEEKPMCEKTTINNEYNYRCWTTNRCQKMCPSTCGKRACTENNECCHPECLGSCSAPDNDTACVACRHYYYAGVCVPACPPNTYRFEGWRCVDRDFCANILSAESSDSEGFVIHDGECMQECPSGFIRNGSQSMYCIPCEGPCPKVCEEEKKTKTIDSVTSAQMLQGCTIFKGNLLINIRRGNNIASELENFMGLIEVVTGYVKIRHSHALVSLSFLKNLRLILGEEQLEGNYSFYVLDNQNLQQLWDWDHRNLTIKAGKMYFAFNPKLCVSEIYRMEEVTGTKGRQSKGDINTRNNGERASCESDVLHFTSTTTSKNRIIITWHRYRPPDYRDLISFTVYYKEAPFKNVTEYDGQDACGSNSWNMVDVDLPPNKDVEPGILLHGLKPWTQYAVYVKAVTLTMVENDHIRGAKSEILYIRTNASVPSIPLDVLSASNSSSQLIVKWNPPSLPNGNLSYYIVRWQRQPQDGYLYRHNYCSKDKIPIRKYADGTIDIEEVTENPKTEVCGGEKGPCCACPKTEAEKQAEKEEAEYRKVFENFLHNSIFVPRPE
T3 sequence (P08069 741-1367 partner limits assumed): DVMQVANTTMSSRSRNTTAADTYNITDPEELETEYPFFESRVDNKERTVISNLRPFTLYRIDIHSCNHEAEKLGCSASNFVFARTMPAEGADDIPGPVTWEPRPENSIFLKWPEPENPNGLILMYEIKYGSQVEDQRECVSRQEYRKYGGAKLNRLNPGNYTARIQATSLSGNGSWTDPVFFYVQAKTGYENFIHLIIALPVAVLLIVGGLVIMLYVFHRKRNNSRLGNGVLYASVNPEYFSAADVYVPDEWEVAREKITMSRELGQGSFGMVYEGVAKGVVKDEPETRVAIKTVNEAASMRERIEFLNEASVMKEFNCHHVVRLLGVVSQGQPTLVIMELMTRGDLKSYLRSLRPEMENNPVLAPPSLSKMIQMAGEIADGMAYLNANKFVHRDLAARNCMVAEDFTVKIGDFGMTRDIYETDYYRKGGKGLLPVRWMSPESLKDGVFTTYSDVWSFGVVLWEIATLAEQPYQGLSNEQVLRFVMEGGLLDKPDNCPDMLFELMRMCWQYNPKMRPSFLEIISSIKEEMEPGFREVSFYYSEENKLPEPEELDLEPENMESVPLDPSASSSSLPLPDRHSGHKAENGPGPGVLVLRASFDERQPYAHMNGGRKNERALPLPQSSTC

IGF-1 Receptor [3] = target: T3, IGF-1 Receptor; assay: IGF-1 receptor binding assay (scintillation proximity competition); design: expressed in transfected cells; plasma membrane fragments; settings: Table 9
[4] = target: insulin A subtype receptor (IR-A) (Homo sapiens, UniProt P06213); assay: Phosphorylation assay at insulin A subtype receptor; settings: Table 14
Chain of insulin A subtype receptor (IR-A) (P06213 28-1370 isoform P06213-2 limits assumed): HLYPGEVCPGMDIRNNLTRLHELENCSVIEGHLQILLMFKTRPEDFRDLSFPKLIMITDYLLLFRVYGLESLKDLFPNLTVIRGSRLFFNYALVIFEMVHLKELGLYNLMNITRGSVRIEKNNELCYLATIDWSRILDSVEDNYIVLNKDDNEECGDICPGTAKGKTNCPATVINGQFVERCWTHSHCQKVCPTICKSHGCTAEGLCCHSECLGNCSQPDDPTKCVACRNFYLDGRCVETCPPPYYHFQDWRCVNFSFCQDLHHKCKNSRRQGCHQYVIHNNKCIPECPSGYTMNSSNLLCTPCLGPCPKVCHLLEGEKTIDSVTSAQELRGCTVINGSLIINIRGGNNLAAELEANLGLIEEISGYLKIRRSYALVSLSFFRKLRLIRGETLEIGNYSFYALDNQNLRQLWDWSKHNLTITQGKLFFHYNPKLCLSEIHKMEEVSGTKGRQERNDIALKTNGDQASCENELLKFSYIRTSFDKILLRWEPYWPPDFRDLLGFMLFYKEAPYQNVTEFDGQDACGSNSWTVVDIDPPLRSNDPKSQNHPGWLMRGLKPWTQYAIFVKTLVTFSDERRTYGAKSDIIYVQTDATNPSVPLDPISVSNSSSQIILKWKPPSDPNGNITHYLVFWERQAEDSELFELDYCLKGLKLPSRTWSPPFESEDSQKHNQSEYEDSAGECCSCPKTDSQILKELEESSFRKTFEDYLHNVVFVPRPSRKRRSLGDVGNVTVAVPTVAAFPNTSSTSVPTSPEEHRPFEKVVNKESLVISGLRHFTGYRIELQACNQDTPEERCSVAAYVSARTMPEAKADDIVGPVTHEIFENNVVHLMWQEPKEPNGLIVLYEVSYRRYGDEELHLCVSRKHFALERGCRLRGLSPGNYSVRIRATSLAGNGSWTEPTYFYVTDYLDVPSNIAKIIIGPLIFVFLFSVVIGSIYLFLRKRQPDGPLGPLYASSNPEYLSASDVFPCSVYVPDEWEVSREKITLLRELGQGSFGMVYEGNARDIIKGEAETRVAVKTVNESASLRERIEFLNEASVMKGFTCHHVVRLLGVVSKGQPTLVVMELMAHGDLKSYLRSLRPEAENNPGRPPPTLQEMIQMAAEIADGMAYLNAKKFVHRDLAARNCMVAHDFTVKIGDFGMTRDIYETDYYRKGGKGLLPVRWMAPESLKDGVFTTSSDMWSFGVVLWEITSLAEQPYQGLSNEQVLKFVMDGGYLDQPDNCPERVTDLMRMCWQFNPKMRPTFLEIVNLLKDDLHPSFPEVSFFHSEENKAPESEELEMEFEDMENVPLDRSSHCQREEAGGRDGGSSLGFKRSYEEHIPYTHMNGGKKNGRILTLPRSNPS
Chain of insulin A subtype receptor (IR-A) (P06213 763-1382 partner limits assumed): as the sequence (P06213 763-1382 partner limits assumed) above

[5] = target: insulin B subtype receptor (IR-B) (Homo sapiens, UniProt P06213); assay: Phosphorylation assay at insulin B subtype receptor; settings: Table 14
Chain of insulin B subtype receptor (IR-B) (P06213 28-758 limits assumed): as the sequence (P06213 28-758 limits assumed) above
Chain of insulin B subtype receptor (IR-B) (P06213 763-1382 partner limits assumed): as the sequence (P06213 763-1382 partner limits assumed) above

C57/Blk mice = assay: Comparative insulin tolerance test (blood glucose lowering) in mice; format: in vivo; settings: C57 black mice
Excerpt: […]. […] […]. These in vivo results are consistent with the in vitro analysis.
[…]. […] […].

Compound: CC[C@H](C)[C@H](NC(=O)CN)C(=O)N[C@H](C(=O)N[C@@H](CC(=O)O)C(=O)N[C@@H](CCC(=O)O)C(=O)N[C@@H](C)C(=O)N[C@@H](C)C(=O)N[C@@H](Cc1ccccc1)C(=O)N[C@@H](CCCNC(=N)N)C(=O)N[C@@H](CO)C(=O)N[C@@H](C)C(=O)N[C@@H](CC(=O)O)C(=O)N[C@@H](CC(C)C)C(=O)N[C@@H](CCCNC(=N)N)C(=O)N[C@@H](CCCNC(=N)N)C(=O)N[C@@H](CC(C)C)C(=O)N[C@@H](CCC(=O)O)C(=O)N[C@@H](CCSC)C(=O)N[C@@H](Cc1ccc(NC(=O)[C@H]2CCCN2C(=O)C(C)(C)N)cc1)C(=O)N[C@@H](C)C(=O)N[C@@H](C)C(N)=O)C(C)C [Aib dPro] (HELM PEPTIDE1{G.I.V.D.E.A.A.F.R.S.A.D.L.R.R.L.E.M.[O=C([C@H](Cc1ccc(N[*:3])cc1)N[*:1])[*:2]].A.A.[am]}|PEPTIDE2{[Aib].[dP]}$PEPTIDE1,PEPTIDE2,19:R3-2:R2$$$V2.0)
Half Life, 20% Plasma/PBS: 2.2 h

Compound: CC[C@H](C)[C@H](NC(=O)CN)C(=O)N[C@H](C(=O)N[C@@H](CC(=O)O)C(=O)N[C@@H](CCC(=O)O)C(=O)N[C@@H](C)C(=O)N[C@@H](C)C(=O)N[C@@H](Cc1ccccc1)C(=O)N[C@@H](CCCNC(=N)N)C(=O)N[C@@H](CO)C(=O)N[C@@H](C)C(=O)N[C@@H](CC(=O)O)C(=O)N[C@@H](CC(C)C)C(=O)N[C@@H](CCCNC(=N)N)C(=O)N[C@@H](CCCNC(=N)N)C(=O)N[C@@H](CC(C)C)C(=O)N[C@@H](CCC(=O)O)C(=O)N[C@@H](CCSC)C(=O)N[C@@H](Cc1ccc(NC(=O)CN(C)C(=O)[C@@H](N)CCCCN)cc1)C(=O)N[C@@H](C)C(=O)N[C@@H](C)C(N)=O)C(C)C [K Sar] (HELM PEPTIDE1{G.I.V.D.E.A.A.F.R.S.A.D.L.R.R.L.E.M.[O=C([C@H](Cc1ccc(N[*:3])cc1)N[*:1])[*:2]].A.A.[am]}|PEPTIDE2{K.[Sar]}$PEPTIDE1,PEPTIDE2,19:R3-2:R2$$$V2.0)
Half Life, 20% Plasma/PBS: 5.9 h

Compound: CC[C@H](C)[C@H](NC(=O)CN)C(=O)N[C@H](C(=O)N[C@@H](CC(=O)O)C(=O)N[C@@H](CCC(=O)O)C(=O)N[C@@H](C)C(=O)N[C@@H](C)C(=O)N[C@@H](Cc1ccccc1)C(=O)N[C@@H](CCCNC(=N)N)C(=O)N[C@@H](CO)C(=O)N[C@@H](C)C(=O)N[C@@H](CC(=O)O)C(=O)N[C@@H](CC(C)C)C(=O)N[C@@H](CCCNC(=N)N)C(=O)N[C@@H](CCCNC(=N)N)C(=O)N[C@@H](CC(C)C)C(=O)N[C@@H](CCC(=O)O)C(=O)N[C@@H](CCSC)C(=O)N[C@@H](Cc1ccc(NC(=O)[C@@H]2CCCN2C(=O)C(C)(C)N)cc1)C(=O)N[C@@H](C)C(=O)N[C@@H](C)C(N)=O)C(C)C [Aib Pro] (HELM PEPTIDE1{G.I.V.D.E.A.A.F.R.S.A.D.L.R.R.L.E.M.[O=C([C@H](Cc1ccc(N[*:3])cc1)N[*:1])[*:2]].A.A.[am]}|PEPTIDE2{[Aib].P}$PEPTIDE1,PEPTIDE2,19:R3-2:R2$$$V2.0)
Half Life, 20% Plasma/PBS: 2.1 h

Compound: CC[C@H](C)[C@H](NC(=O)CN)C(=O)N[C@H](C(=O)N[C@@H](CC(=O)O)C(=O)N[C@@H](CCC(=O)O)C(=O)N[C@H]1CSSC[C@@H]2NC(=O)[C@H](CO)NC(=O)[C@H](C)NC(=O)[C@H](Cc3c[nH]cn3)NC(=O)[C@H](CSSC[C@H](NC(=O)[C@H](CC(C)C)NC(=O)[C@H](Cc3c[nH]cn3)NC(=O)[C@H](CCC(=O)O)NC(=O)[C@@H]3CCCN3C(=O)CN)C(=O)NCC(=O)N[C@@H](C)C(=O)N[C@@H](CC(=O)O)C(=O)N[C@@H](CC(C)C)C(=O)N[C@@H](C(C)C)C(=O)N[C@@H](CC(=O)O)C(=O)N[C@@H](C)C(=O)N[C@@H](CC(C)C)C(=O)N[C@@H](Cc3ccc(O)cc3)C(=O)N[C@@H](CC(C)C)C(=O)N[C@@H](C(C)C)C(=O)N[C@H](C(=O)NCC(=O)N[C@@H](CC(=O)O)C(=O)N[C@@H](C)C(=O)NCC(=O)N[C@@H](Cc3ccccc3)C(=O)N[C@@H](Cc3ccc(O)cc3)C(N)=O)CSSC[C@@H](C(=O)N[C@@H](CC(N)=O)C(=O)O)NC(=O)[C@H](Cc3ccc(O)cc3)NC(=O)[C@H](CC[S+](C)[O-])NC(=O)[C@H](CCC(=O)O)NC(=O)[C@H](CC(C)C)NC(=O)[C@H](CCCNC(=N)N)NC(=O)[C@H](CCCNC(=N)N)NC(=O)[C@H](CC(C)C)NC(=O)[C@H](CC(=O)O)NC2=O)NC1=O)C(C)C (stereo partly shown)
Insulin Receptor % insulin (in test) (human insulin receptor; Table 9): 400.7%

More lines, main results first:

% of Insulin Activity (human insulin receptor; Table 8): 37.12%
Compound: CC[C@H](C)[C@H](NC(=O)CNC(=O)[C@@H]1CCCN1C(=O)[C@H](C)N)C(=O)N[C@H](C(=O)N[C@@H](CC(=O)O)C(=O)N[C@@H](CCC(=O)O)C(=O)N[C@H]1CSSC[C@@H]2NC(=O)[C@H](CO)NC(=O)[C@H](CCCNC(=N)N)NC(=O)[C@H](Cc3ccccc3)NC(=O)[C@H](CSSC[C@H](NC(=O)[C@H](CC(C)C)NC(=O)[C@@H](NC(=O)[C@H](CCC(=O)O)NC(=O)[C@@H]3CCCN3C(=O)CN)[C@@H](C)O)C(=O)NCC(=O)N[C@@H](C)C(=O)N[C@@H](CCC(=O)O)C(=O)N[C@@H](CC(C)C)C(=O)N[C@@H](C(C)C)C(=O)N[C@@H](CC(=O)O)C(=O)N[C@@H](C)C(=O)N[C@@H](CC(C)C)C(=O)N[C@@H](Cc3ccc(O)cc3)C(=O)N[C@@H](CC(C)C)C(=O)N[C@@H](C(C)C)C(=O)N[C@H](C(=O)NCC(=O)N[C@@H](CC(=O)O)C(=O)N[C@@H](CCCNC(=N)N)C(=O)NCC(=O)N[C@@H](Cc3ccccc3)C(=O)N[C@@H](Cc3ccc(O)cc3)C(=O)N[C@@H](Cc3ccccc3)C(=O)N[C@@H](CC(N)=O)C(=O)N[C@@H](CCCCN)C(=O)N3CCC[C@H]3C(=O)N[C@H](C(N)=O)[C@@H](C)O)CSSC[C@@H](C(=O)N[C@@H](C)C(N)=O)NC(=O)[C@H](Cc3ccc(O)cc3)NC(=O)[C@H](CCSC)NC(=O)[C@H](CCC(=O)O)NC(=O)[C@H](CC(C)C)NC(=O)[C@H](CCCNC(=N)N)NC(=O)[C@H](CCCNC(=N)N)NC(=O)[C@H](CC(C)C)NC(=O)[C@H](CC(=O)O)NC2=O)NC1=O)C(C)C [IGF1(YL)A-1, 0^B16, 17(AlaPro)]
insulin receptor binding (in words) (human insulin receptor; relative to native insulin): substantially reduced affinity for the insulin receptor

Ratio (human insulin receptor; Table 9, IGF-1 receptor IC50 / insulin receptor IC50): 80.6 | Insulin Receptor % Insulin ([1]; Table 10, listed as IGF-1 A (H8 A9 N21) B (H5D10Y16L17) DPI A-COOH): 840% and 1080% | IGF-1 Receptor % IGF (IGF-1 Receptor [2]): 181.395% | IGF-1 Receptor % IGF-1 (in test) (IGF-1 Receptor [3]): 12.9%
Compound: CC[C@H](C)[C@H](NC(=O)CN)C(=O)N[C@H](C(=O)N[C@@H](CC(=O)O)C(=O)N[C@@H](CCC(=O)O)C(=O)N[C@H]1CSSC[C@@H]2NC(=O)[C@H](CO)NC(=O)[C@H](C)NC(=O)[C@H](Cc3c[nH]cn3)NC(=O)[C@H](CSSC[C@H](NC(=O)[C@H](CC(C)C)NC(=O)[C@H](Cc3c[nH]cn3)NC(=O)[C@H](CCC(=O)O)NC(=O)[C@@H]3CCCN3C(=O)CN)C(=O)NCC(=O)N[C@@H](C)C(=O)N[C@@H](CC(=O)O)C(=O)N[C@@H](CC(C)C)C(=O)N[C@@H](C(C)C)C(=O)N[C@@H](CC(=O)O)C(=O)N[C@@H](C)C(=O)N[C@@H](CC(C)C)C(=O)N[C@@H](Cc3ccc(O)cc3)C(=O)N[C@@H](CC(C)C)C(=O)N[C@@H](C(C)C)C(=O)N[C@H](C(=O)NCC(=O)N[C@@H](CC(=O)O)C(=O)N[C@@H](CCCNC(=N)N)C(=O)NCC(=O)N[C@@H](Cc3ccccc3)C(=O)N[C@@H](Cc3ccc(O)cc3)C(N)=O)CSSC[C@@H](C(=O)N[C@@H](CC(N)=O)C(=O)O)NC(=O)[C@H](Cc3ccc(O)cc3)NC(=O)[C@H](CCSC)NC(=O)[C@H](CCC(=O)O)NC(=O)[C@H](CC(C)C)NC(=O)[C@H](CCCNC(=N)N)NC(=O)[C@H](CCCNC(=N)N)NC(=O)[C@H](CC(C)C)NC(=O)[C@H](CC(=O)O)NC2=O)NC1=O)C(C)C

% (of insulin) [4]: 81% | % (of insulin) [5]: 48%
Compound: I: X1-GPEHLCGAHLVDALYLVCGDRGFY-NH2 / II: H-GIVDECCFRSCDLRRLEN[Phe(4-NH2)]CN-OH (disulfide I:6-II:7, I:18-II:20, II:6-II:11) [Unpegylated pNH2F, B^1Aoa2(H5, H10,Y16,L17)25a: A^1(pNH2—F19, N18, N21]

% Activity of Insulin (human insulin receptor; incubated 0 hr in 20% plasma/PBS at 37° C.): 34.44% | % Activity of Insulin (human insulin receptor; incubated 9 hr in 20% plasma/PBS at 37° C.): 100.09% | % Activity of Insulin (human insulin receptor; incubated 95 hr in 20% plasma/PBS at 37° C.): 115.42% | % Activity of Insulin ([1]; incubated 1 hr in 20% plasma): 23.0% | % Activity of Insulin ([1]; incubated 3 hr in 20% plasma): 26.8% | % Activity of Insulin ([1]; incubated 6 hr in 20% plasma): 32.5% | % Activity of Insulin ([1]; incubated 9 hr in 20% plasma): 41.1% | % Activity of Insulin ([1]; incubated […] in 20% plasma): 43.2%
Compound: B^1(Y16,L17,Y25)29a: A^1(dLys(Ac),Sar-aF19) [MIU30]
blood glucose (differential AUC vs vehicle, 8 hr) (C57/Blk mice; 90 nmol/kg): little change in glucose | blood glucose (differential AUC vs vehicle, 8 hr) (C57/Blk mice; 270 nmol/kg): glucose lowering
